According to patent US20200055948A1, “CELLS EXPRESSING A BCMA-TARGETING CHIMERIC ANTIGEN RECEPTOR, AND COMBINATION THERAPY WITH A GAMMA SECRETASE INHIBITOR” (Novartis AG, priority 2017, published 2020):

Experiments:
membrane BCMA expression = assay: GSI enhancement of membrane BCMA (mBCMA) expression, flow cytometry after 72 hours, NCI-H929, MM1S, U266B1 (Example 2, Table 30, FIG. 3); format: cell-based; conditions: Homo sapiens
Experimental: (§1) FIG. 3 is a panel of graphs comparing soluble/shed BCMA (sBCMA) levels to membrane-bound BCMA (mBCMA) levels in MM1S cell cultures treated with various gamma secretase inhibitors for 72 hours.
(§2) Target human cancer cell lines expressing various levels of human BCMA (NCI-H929^[High], MM1S^[med], U266B1^[low]) were all transduced to constitutively express luciferase, which is used to measure cell viability/survival with the BrightGlo reagent (Promega E2650). Target cells were plated 30,000 cells per well in a 96 well plate (Costar 3904) together with serial dilutions of a panel of gamma secretase inhibitors (Table 29). The plate was incubated at 37° C./5% CO2 for 72 hours, followed by measurements of cell viability (BrightGlo, Promega # E2650) according to vendor protocol. In a replicate set of assay plates, cell culture supernatants were collected by centrifugation and quantified for levels of soluble BCMA by ELISA (R&D Systems, DY193), and the remaining cells were stained with a PE conjugated BCMA antibody (clone 19F2, Biolegend 357504) and analyzed by flow cytometry for BCMA cell surface expression levels.
(§3) Raw OD450 values from the BCMA ELISA were plotted together with the mean fluorescent intensity values from flow cytometry analysis of cells stained with anti-BCMA antibody, and are shown for MM1S cells treated with the various GSIs in FIG. 3. Table 30 summarizes the EC50 results of all the GSIs on the three BCMA-expressing cell lines.

shed/soluble BCMA = assay: GSI inhibition of shed/soluble BCMA (sBCMA), ELISA of supernatants after 72 hours, NCI-H929, MM1S, U266B1 (Example 2, Table 30, FIG. 3); format: cell-based, human; conditions: for EC50: Homo sapiens, 72 hours, ELISA of supernatants; for efficacious concentrations, rank among the panel of GSIs: inhibition of BCMA shedding and enhancement of membrane BCMA, Table 30
Experimental: as §1, §2, §3

[1] = system: BCMA cell surface expression; assay: BCMA cell surface expression by flow cytometry with PE conjugated BCMA antibody, with or without GSI (Example 1, FIG. 1); format: cell-based, human; conditions: BCMA-expressing multiple myeloma cell lines
Experimental: FIG. 1 is a set of histogram plots showing the staining of BCMA-expressing human cancer cell lines, NCI-H929, MM1S, and U266B1, using a PE conjugated anti-BCMA antibody. The cell lines were untreated, or treated with 1.0 μM DAPT or 0.1 μM LY-411,575 before subjected to a flow cytometry analysis.
Human cancer cell lines expressing various levels of human BCMA (NCI-H929^[High] MM1S^[Med], and U266B1^[low]) were all transduced to constitutively express luciferase, which is used to measure cell viability/survival with the BrightGlo reagent (Promega # E2650).
BCMA expressing cell lines were treated overnight with and without GSIs. Cell culture supernatants were collected and quantified for levels of soluble BCMA by ELISA (R&D Systems, # DY193). Additionally, remaining cells were pelleted, stained with a PE conjugated BCMA antibody (clone 19F2, Biolegend #357504) and analyzed by flow cytometry for BCMA cell surface expression levels.
BCMA cell surface expression level was determined by flow cytometry on cell lines with or without GSI treatment.

soluble BCMA = assay: Soluble BCMA in supernatants of MM cell lines U266 or RPMI 8226 by sandwich ELISA after 48 hrs GSI (Example 3, FIGS. 5A and 5B); format: cell-based, human; conditions: RPMI 8226 cells treated, 6 μM-100 μM
Experimental: FIGS. 5A and 5B are a pair of graphs showing that a gamma secretase inhibitor reduces soluble BCMA released by MM cell lines. In FIGS. 5A and 5B, the amount of soluble BCMA (pg/ml) as measured by ELISA is plotted for each GSI concentration tested.
MM cell lines U266 or RPMI 8226 were incubated with several concentrations (6 μM-100 μM) of Ly 411575 gamma secretase inhibitor (Miltenyi) for 48 hrs. Supernatants were collected and secreted BCMA was measured using a sandwich ELISA (BCMA/TNFRSF17 ELISA Duo set, R&D Systems).

EC50 (membrane BCMA expression; MM1.S, MM1S cells) [µM] | EC50 (membrane BCMA expression; NCI-H929, H929 cells) [µM] | EC50 (membrane BCMA expression; U266B1 cells) [µM] | EC50 (shed/soluble BCMA; MM1.S, MM1S cells) [µM] | EC50 (shed/soluble BCMA; NCI-H929, H929 cells) [µM] | EC50 (shed/soluble BCMA; U266B1 cells) [µM] | SMILES | efficacious concentrations, rank among the panel of GSIs (shed/soluble BCMA) | cell surface expression of BCMA (in words) [1] | secreted BCMA (soluble BCMA) [pg/mL]
0.485 | 0.152 | 1.69 | 0.8 | 0.528 | – | C[C@H](c1ccc(F)cc1CCCC(=O)O)N(c1cc(F)ccc1F)S(=O)(=O)c1ccc(Cl)cc1 [BMS-299897] | least | – | –
0.0074 | 0.0036 | 0.0324 | 0.0133 | 0.0025 | 0.0298 | NC(=O)[C@@H](CCC(F)(F)F)N(Cc1ccc(-c2ncon2)cc1F)S(=O)(=O)c1ccc(Cl)cc1 [BMS-708163, (R)-2-((4-chloro-N-(2-fluoro-4-(1,2,4-oxadiazol-3-yl)benzyl)phenyl)sulfonamido)-5,5,5-trifluoropentanamide] | – | – | –
0.0974 | 0.145 | 0.401 | 0.144 | 0.22 | 0.459 | C[C@H](NC(=O)Cc1cc(F)cc(F)c1)C(=O)N[C@H](C(=O)OC(C)(C)C)c1ccccc1 [DAPT] | – | strongly enhances | –
– | 0.0001 | 0.0001 | 0.0001 | 0.0002 | 0.0001 | C[C@H](NC(=O)[C@@H](O)c1cc(F)cc(F)c1)C(=O)N[C@@H]1C(=O)N(C)c2ccccc2-c2ccccc21 [LY-411575, (S)-2-((S)-2-(3,5-difluorophenyl)-2-hydroxyacetamido)-N—((S)-5-methyl-6-oxo-6,7-dihydro-5H-dibenzo[b,c]azepin-7-yl)propanamide] | most potent | strongly enhances | 200
0.0407 | 0.0548 | 0.19 | 0.065 | 0.0999 | 0.236 | CC(C)[C@H](O)C(=O)N[C@@H](C)C(=O)N[C@@H]1C(=O)N(C)CCc2ccccc21 [LY-450139, (S)-2-hydroxy-3-methyl-N—((S)-1-(((S)-3-methyl-2-oxo-2,3,4,5-tetrahydro-1H-benzo[d]azepin-1-yl)amino)-1-oxopropan-2-yl)butanamide] | – | – | –
0.332 | 0.0693 | 1.21 | 0.566 | 0.269 | 1.06 | O=C(O)CC[C@H]1CC[C@@](c2cc(F)ccc2F)(S(=O)(=O)c2ccc(Cl)cc2)CC1 [MK-0752, 3-((1S,4R)-4-((4-chlorophenyl)sulfonyl)-4-(2,5-difluorophenyl)cyclohexyl)propanoic acid] | – | – | –
0.0366 | 0.0316 | 0.0704 | 0.0322 | 0.0348 | 0.0672 | CCC[C@H](N[C@H]1CCc2cc(F)cc(F)c2C1)C(=O)Nc1cn(C(C)(C)CNCC(C)(C)C)cn1 [PF-3084014, (S)-2-(((S)-6,8-difluoro-1,2,3,4-tetrahydronaphthalen-2-yl)amino)-N-(1-(2-methyl-1-(neopentylamino)propan-2-yl)-1H-imidazol-4-yl)pentanamide] | – | – | –
0.0522 | 0.0138 | 0.56 | 0.121 | 0.137 | 0.583 | O=S(=O)(N[C@@H](CO)C(C(F)(F)F)C(F)(F)F)c1ccc(Cl)s1 [PF-5212362, (R)-5-chloro-N-(4,4,4-trifluoro-1-hydroxy-3-(trifluoromethyl)butan-2-yl)thiophene-2-sulfonamide] | – | – | –
0.0032 | 0.0044 | 0.0101 | 0.0046 | 0.003 | 0.0062 | CC(C)(C(=O)NCC(F)(F)C(F)(F)F)C(=O)N[C@@H]1C(=O)Nc2ccccc2-c2ccccc21 [RO4929097] | – | – | –
